# Assay results: patent US9795570B2, “Modulation of macrophage phenotype by emodin” (University of South Carolina, priority 2016, dated 2017)
# Legend:
# [1] = system: mouse peritoneal macrophages; assay: Whole genome microarray, macrophages stimulated with LPS/IFNγ; assay type: cell-based
# Description: Three milliliters of 4% Thioglycolate solution was injected intraperitoneally into 8-12 week old C57BL/6 mice. Three days later, macrophages were collected by lavaging the peritoneal cavity with PBS. The cells were then resuspended in DMEM containing 10% FBS. After 2 h, non-adherent cells were washed away with PBS and the macrophages were cultured overnight in serum free DMEM. The macrophages were then treated with DMEM containing IL4 (10 ng/ml, BioAbChem Inc. Ladson, S.C.) or LPS (100 ng/ml, Sigma-Aldrich) and IFNγ (20 ng/ml, BioAbChem Inc) with or without emodin. Emodin was purchased from Nanjing Langze Medicine and Technology Co. Ltd (Nanjing, China) and dissolved in DMSO at a concentration of 10 mg/ml as a stock solution.
# Microarray analysis was carried out as described previously, with a few alterations. Macrophages were stimulated with IL4 for 6 h or LPS+IFNγ for 24 h with or without emodin (50 μM). Samples were prepared in biological replicates of 4. Cells were lysed with Qiazol and RNA was extracted using Qiagen's miRNeasy kit. Agilent's 2100 Bioanalyzer was used to determine the quality and quantity of the RNA. […] The RNA was amplified and labeled with Agilent's Low Input Quick Amp Labeling Kit (Agilent) according to the manufacturer's instructions. Labeled RNA was then purified using Qiagen's RNeasy Mini Kit (Qiagen, Valencia, Calif.) and dye incorporation and cRNA yield were assessed. Labeled samples were hybridized to Agilent Whole Mouse Genome Microarrays 8×60K (Agilent) using Agilent's Gene Expression Hybridization Kit (Agilent) according to the manufacturer's instructions. Microarray analysis was performed using an Agilent DNA Microarray Scanner System (Cat. # G2565CA).
# For microarray analysis, data was extracted from images with Feature Extractor Software version 10.7.3.1 (Agilent); background correction using detrending algorithms was performed. Subsequently, background-corrected data was uploaded into GeneSpring GX version 11.5.1 for analysis. In this process, data was log 2 transformed, quantile normalized and baseline transformed using the median of all samples. […] Differentially expressed genes were determined by analysis of the data using the Mann-Whitney unpaired statistics. A cutoff p-value of 0.05 and a fold change cutoff value of 2.0 were used to filter the data. Pathway analysis was performed using Ingenuity Pathway Analysis software.
# [2] = system: EO771 cells; assay: Cell viability, LDH assay; assay type: cell-based, mouse; conditions: emodin 0-100 μM, 24-48 h
# Description: Tumor cells (2×10^4 EO771 or 4T1 cells) were seeded into 96 well culture plates in DMEM with 10% FBS. The cells were incubated overnight at 37° C. The medium was then removed, and the cells were washed with phosphate-buffered saline (PBS). DMEM containing varying concentrations of emodin (0-100 μM) was then added to the cells in quadruplicate. Vehicle control contained an equal volume of DMSO. Plates of cells were then incubated for 24-48 h. After an indicated period, the viability of the cells was determined using a Lactate Dehydrogenase (LDH) Cytotoxicity Detection Kit (Clontech Mountain View, Calif.) according to the manufacturer's instructions. Briefly, the supernatant was removed from each well on the plate and placed in a new well on the same plate. An equal volume of cell lysis buffer (2% triton in DMEM) was then added to each well containing the cancer cells, and the cells were incubated at room temperature for 15 min. The reaction mixture was then added to each well (cell lysate plus supernatant) and incubated for 5 min before the stop solution was added. The absorbance was measured at 490 nm on a Spectra Max M5 Microplate Reader (Molecular Devices, Sunnyvale, Calif.). The percent viability was then calculated as the ratio of LDH in the cell lysate to the total amount of LDH in the lysate plus the supernatant. The viability of each group was compared to the control.
# [3] = system: Breast tumor cells from MMTV-PyMT mice; assay: Gene expression in ex vivo breast tumor cells (qPCR); assay type: cell-based, mouse
structure (smiles),measurement,setting,value
Cc1cc(O)c2c(c1)C(=O)c1cc(O)cc(O)c1C2=O [emodin],fold reduction of LPS/IFNγ induced expression,"[1]; CD86, microarray, emodin 50 μM",7.74 fold
same,fold change of expression under LPS/IFNγ stimulation,"[1]; CXCL2, microarray",−10.31 fold
same,fold change of expression under LPS/IFNγ stimulation,"[1]; CXCL10, microarray",−2.01 fold
same,fold reduction of LPS/IFNγ induced expression,"[1]; H2-Oa, microarray, emodin 50 μM",3.85 fold
same,fold reduction of LPS/IFNγ induced expression,"[1]; H2-Ob, microarray, emodin 50 μM",6.42 fold
same,fold reduction of LPS/IFNγ induced expression,"[1]; IL1β, microarray, emodin 50 μM",13.64 fold
same,fold reduction of LPS/IFNγ induced expression,"[1]; IL6, microarray, emodin 50 μM",3.25 fold
same,genes changed by emodin in both groups,"[1]; LPS/IFNγ and IL4 stimulation, microarray","1,575 genes"
same,genes whose expression was changed by emodin in at least one of the conditions,"[1]; LPS/IFNγ or IL4 stimulation, microarray","~6,500 genes"
same,genes on which emodin had inverse effects under the two different stimuli,"[1]; LPS/IFNγ vs IL4, microarray",86 genes
same,fold reduction of LPS/IFNγ induced expression,"[1]; MMP2, microarray, emodin 50 μM",11.86 fold
same,fold reduction of LPS/IFNγ induced expression,"[1]; MMP9, microarray, emodin 50 μM",28.87 fold
same,fold increase of expression under LPS/IFNγ stimulation,"[1]; Mrc1, microarray",8.72 fold
same,fold change of expression under LPS/IFNγ stimulation,"[1]; TNFα, microarray",−2.47 fold
same,fold reduction of LPS/IFNγ induced expression,"[1]; TNFα, microarray, emodin 50 μM",2.01 fold
same,fold increase of expression under LPS/IFNγ stimulation,"[1]; YM1, microarray",2.04 fold
same,LPS/IFNγ responsive genes whose induced changes were attenuated,"[1]; emodin 50 μM, LPS/IFNγ 24 h",about 31%
same,Em + LPS vs. LPS/IFN (gene expression),"[1]; gene CCL2, microarray, LPS/IFNγ 24 h, emodin 50 μM",−12.06
same,Em + LPS vs. LPS/IFN (gene expression),"[1]; gene CCL5, microarray, LPS/IFNγ 24 h, emodin 50 μM",−5.41
same,Em + LPS vs. LPS/IFN (gene expression),"[1]; gene CD86, microarray, LPS/IFNγ 24 h, emodin 50 μM",−7.74
same,Em + LPS vs. LPS/IFN (gene expression),"[1]; gene CXCL2, microarray, LPS/IFNγ 24 h, emodin 50 μM",−2.47
same,Em + LPS vs. LPS/IFN (gene expression),"[1]; gene CXCL3, microarray, LPS/IFNγ 24 h, emodin 50 μM",−2.47
same,Em + LPS vs. LPS/IFN (gene expression),"[1]; gene CXCL10, microarray, LPS/IFNγ 24 h, emodin 50 μM",−10.31
same,Em + LPS vs. LPS/IFN (gene expression),"[1]; gene FPR2, microarray, LPS/IFNγ 24 h, emodin 50 μM",−33.81
same,Em + LPS vs. LPS/IFN (gene expression),"[1]; gene H2-Oa, microarray, LPS/IFNγ 24 h, emodin 50 μM",−3.85
same,Em + LPS vs. LPS/IFN (gene expression),"[1]; gene H2-Ob, microarray, LPS/IFNγ 24 h, emodin 50 μM",−6.42
same,Em + LPS vs. LPS/IFN (gene expression),"[1]; gene IFIT1, microarray, LPS/IFNγ 24 h, emodin 50 μM",−11.94
same,Em + LPS vs. LPS/IFN (gene expression),"[1]; gene IL1B, microarray, LPS/IFNγ 24 h, emodin 50 μM",−13.64
same,Em + LPS vs. LPS/IFN (gene expression),"[1]; gene IL1RL1, microarray, LPS/IFNγ 24 h, emodin 50 μM",−10.78
same,Em + LPS vs. LPS/IFN (gene expression),"[1]; gene IL6, microarray, LPS/IFNγ 24 h, emodin 50 μM",−3.25
same,Em + LPS vs. LPS/IFN (gene expression),"[1]; gene IL12A, microarray, LPS/IFNγ 24 h, emodin 50 μM",−4.93
same,Em + LPS vs. LPS/IFN (gene expression),"[1]; gene IL12B, microarray, LPS/IFNγ 24 h, emodin 50 μM",2.47
same,Em + LPS vs. LPS/IFN (gene expression),"[1]; gene IRF5, microarray, LPS/IFNγ 24 h, emodin 50 μM",−2.11
same,Em + LPS vs. LPS/IFN (gene expression),"[1]; gene IRF7, microarray, LPS/IFNγ 24 h, emodin 50 μM",−4.20
same,Em + LPS vs. LPS/IFN (gene expression),"[1]; gene MMP2, microarray, LPS/IFNγ 24 h, emodin 50 μM",−11.86
same,Em + LPS vs. LPS/IFN (gene expression),"[1]; gene MMP9, microarray, LPS/IFNγ 24 h, emodin 50 μM",−28.87
same,Em + LPS vs. LPS/IFN (gene expression),"[1]; gene MYH3, microarray, LPS/IFNγ 24 h, emodin 50 μM",−7.76
same,Em + LPS vs. LPS/IFN (gene expression),"[1]; gene Mrc1, microarray, LPS/IFNγ 24 h, emodin 50 μM",8.72
same,Em + LPS vs. LPS/IFN (gene expression),"[1]; gene NOS2, microarray, LPS/IFNγ 24 h, emodin 50 μM",−3.77
same,Em + LPS vs. LPS/IFN (gene expression),"[1]; gene PTGS2, microarray, LPS/IFNγ 24 h, emodin 50 μM",−3.99
same,Em + LPS vs. LPS/IFN (gene expression),"[1]; gene RASGRP1, microarray, LPS/IFNγ 24 h, emodin 50 μM",−8.52
same,Em + LPS vs. LPS/IFN (gene expression),"[1]; gene SELL, microarray, LPS/IFNγ 24 h, emodin 50 μM",−10.45
same,Em + LPS vs. LPS/IFN (gene expression),"[1]; gene SOCS1, microarray, LPS/IFNγ 24 h, emodin 50 μM",−5.34
same,Em + LPS vs. LPS/IFN (gene expression),"[1]; gene TLR4, microarray, LPS/IFNγ 24 h, emodin 50 μM",−4.71
same,Em + LPS vs. LPS/IFN (gene expression),"[1]; gene TNF, microarray, LPS/IFNγ 24 h, emodin 50 μM",−2.01
same,concentration from which a slight effect on cell viability starts,[2],≥ 25 µM
same,"expression of CCL2, CSF1, CD90, N-cadherin, vimentin, FoxC2 and KLF4",[3],significantly suppressed
